One test concerns CT26 tumors. Briefly: Inhibition of tumor growth, murine syngeneic model CT26 (subcutaneous dosing). The class given is in vivo. Conditions: CT26 in BALB/c mice, vs vehicle (FIG. 6). The method, then:
For the CT26 study BALB/c mice were inoculated subcutaneously at the right flank with CT26 cells for tumor development. Four days after tumor inoculation, 36 mice with tumor size ranging from 40-55 mm^3 (average tumor size 47 mm^3) were selected and assigned into 3 groups using stratified randomization with 12 mice in each group based upon their tumor volumes. The treatments were started from the next day post randomization (defined randomization day as day 0) and were treated with vehicle (0.5% methylcellulose+0.2% Tween 80), Compound 98 (500 mg/kg S.C. QD*21 days), Compound 93A (100 mg/kg S.C. BID*21 days) respectively. The tumor sizes were measured three times per week during the treatment. The entire study was terminated on day 21. Mean tumor volume and SEM for both studies are plotted. Statistical significance, calculated using two-tailed unpaired t-tests in which each treatment group was compared to vehicle control, is indicated by an asterisk. Statistics were performed on groups with less than 20% animal loss (D21 for CT26, D17 for 4T1).

Test [1] deals with NCI-H1373 lung cancer cells. Briefly: Inhibition of cancer cell growth in NCI-H1373 lung cancer cells (FIG. 2). The class given is cell-based, human.
Test [2] has as its target T1, PARP7 (Homo sapiens (Human), UniProt Q7Z3E1). Nature of the test: Enzymatic assay for inhibition of PARP7: TR-FRET displacement of biotinylated Probe A from the TIPARP active site. The class given is binding. Conditions: Table A-1. Put shortly: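 Titrated compounds compete with the biotinylated probe; after an additional 30 min incubation at 25° C, time-delayed fluorescence (90 μs) is measured. Inhibition curves use a Hill coefficient that normally floats but may be held at 1.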
On the technique in general: In TR-FRET formats the signal depends on donor and acceptor labels being close together.

In a further test the test system is 4T1-luc2-1A4 tumors. Briefly: Inhibition of tumor growth, murine syngeneic model 4T1 (orthotopic, mammary fat pad). The class given is in vivo. Conditions: 4T1 orthotopic in female BALB/c mice, vs vehicle (FIG. 6). The source says:
Example G: Inhibition of Tumor Growth by Treatment with PARP7 Inhibitors For the 4T1 study female BALB/c mice were inoculated orthotopically in the mammary fat pad with 4T1-1uc2-1A4 cells for tumor development. Eight days after tumor inoculation, 45 mice with tumor size ranging from 63-88 mm^3 (average tumor size 67 mm^3) were selected and assigned into 3 groups using stratified randomization with 15 mice in each group based upon their tumor volumes. The treatments were started from the next day post randomization (defined randomization day as D0) and were treated with vehicle (0.5% methylcellulose +0.2% Tween 80), Compound 98 (500 mg/kg S.C. QD*21 days), Compound 93A (100 mg/kg S.C. BID*21 days) respectively. The tumor sizes were measured three times per week during the treatment. The entire study was terminated on D20. Mean tumor volume and SEM for both studies are plotted. Statistical significance, calculated using two-tailed unpaired t-tests in which each treatment group was compared to vehicle control, is indicated by an asterisk. Statistics were performed on groups with less than 20% animal loss (D21 for CT26, D17 for 4T1).

For test [3], the system named is interferon-beta (IFN-β). Nature of the test: Induction of interferon-beta levels in CT26 cells in the presence of STING agonist DMXAA (FIG. 3). The class given is cell-based. The following applies: CT26 mouse colon cancer cells.
In test [4] the test system is interferon-beta (IFN-β). Nature of the test: Induction of interferon-beta levels in RAW264.7 macrophages in the presence of STING agonist DMXAA (FIG. 3). The following applies: RAW264.7 mouse macrophages. The class given is cell-based.
For test [5], the target named is T1, PARP7. Briefly: Inhibition of PARP7 (Table A-1). The class given is biochemical. Conditions: comparison of separated isomers, see Table A-1.

T1 sequence (Q7Z3E1 whole entry): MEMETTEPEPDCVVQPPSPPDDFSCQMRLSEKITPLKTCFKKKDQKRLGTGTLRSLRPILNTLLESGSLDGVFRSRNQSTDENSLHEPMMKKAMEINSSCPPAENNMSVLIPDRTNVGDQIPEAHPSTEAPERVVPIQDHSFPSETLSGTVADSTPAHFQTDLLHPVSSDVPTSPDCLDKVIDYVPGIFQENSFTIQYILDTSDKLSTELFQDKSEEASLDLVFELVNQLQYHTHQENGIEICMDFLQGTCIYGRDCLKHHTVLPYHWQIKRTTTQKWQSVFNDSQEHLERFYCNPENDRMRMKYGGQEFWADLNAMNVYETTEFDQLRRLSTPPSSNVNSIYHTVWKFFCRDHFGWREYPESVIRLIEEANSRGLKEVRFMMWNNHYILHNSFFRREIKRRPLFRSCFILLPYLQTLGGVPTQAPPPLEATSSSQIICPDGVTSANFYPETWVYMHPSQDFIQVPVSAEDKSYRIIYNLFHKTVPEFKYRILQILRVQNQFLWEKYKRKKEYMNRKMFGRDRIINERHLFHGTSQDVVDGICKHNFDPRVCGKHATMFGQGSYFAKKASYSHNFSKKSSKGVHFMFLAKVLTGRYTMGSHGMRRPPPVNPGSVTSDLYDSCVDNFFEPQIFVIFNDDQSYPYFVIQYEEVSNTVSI

By IC50 is commonly meant the point on the concentration scale where inhibition reaches its midpoint. `N#Cc1ccc(N2CCN(C(=O)CCOC[C@@H]3c4ccccc4CN3c3cn[nH]c(=O)c3C(F)(F)F)CC2)nc1` (single isomer, unassigned) [Example 93 Isomer A]: the tumor growth entry in the test on CT26 tumors (100 mg/kg S.C. BID*21 days) and in the test with 4T1-luc2-1A4 tumors (100 mg/kg S.C. BID*21 days) was “significantly reduce tumor growth” each time. Further, the “growth of NCI-H1373 lung cancer cells” value in test [1] is given as “dose-dependent decrease in growth”. For the same molecule, at PARP7 [2], the IC50 is < 100 nM.
Take `N#Cc1ccc(N2CCN(C(=O)c3cccc(OCCOc4cccc5c4CN(c4cn[nH]c(=O)c4C(F)(F)F)C5)c3)CC2)nc1` [Example 39, 6-[4-([3-[2-([2-[6-Oxo-5-(trifluoromethyl)-1,6-dihydropyridazin-4-yl]-2,3-dihydro-1H-isoindol-4-yl]oxy)ethoxy]phenyl]carbonyl)piperazin-1-yl]pyridine-3-carbonitrile]: the “growth of NCI-H1373 lung cancer cells” value in test [1] is recorded as “dose-dependent decrease in growth”. The IC50 on PARP7 [2] was < 100 nM.
As for `N#Cc1ccc(N2CCN(C(=O)CCOC[C@@H]3CCCN3c3cn[nH]c(=O)c3C(F)(F)F)CC2)nc1` [Example 98, 6-[4-(3-[[(2S)-1-[6-Oxo-5-(trifluoromethyl)-1,6-dihydropyridazin-4-yl]pyrrolidin-2-yl]methoxy]propanoyl)piperazin-1-yl]pyridine-3-carbonitrile], the tumor growth entry with CT26 tumors (500 mg/kg S.C. QD*21 days) and in the test on 4T1-luc2-1A4 tumors (500 mg/kg S.C. QD*21 days) was “significantly reduce tumor growth” in each case. The “interferon-beta (IFN-β) levels” value with interferon-beta (IFN-β) [3] and in the test with interferon-beta (IFN-β) [4] was “induction” in each case. Besides, the “growth of NCI-H1373 lung cancer cells” value in test [1] is reported as “dose-dependent decrease in growth”. Moreover, at PARP7 [2], the IC50 is < 100 nM.
As for `N#Cc1ccc(N2CCN(C(=O)C[C@H]3CC[C@@H]([C@@H]4CCCN4c4cn[nH]c(=O)c4C(F)(F)F)O3)CC2)nc1` [Example 141B, 6-(4-[2-[(2R,5S)-5-[(2S)-1-[6-oxo-5-(trifluoromethyl)-1,6-dihydropyridazin-4-yl]pyrrolidin-2-yl]oxolan-2-yl]acetyl]piperazin-1-yl)pyridine-3-carbonitrile], the “relative potency of the enantiomers / diastereomers” value at PARP7 [5] is on record as “more potent enantiomer”. Also, the IC50 at PARP7 [2] is < 100 nM.
Turning to `C[C@@H](COCCC(=O)N1CCN(c2ncc(C(F)(F)F)s2)CC1)Oc1cn[nH]c(=O)c1Cl` [Example 729, (S)-4-Chloro-5-((1-(3-oxo-3-(4-(5-(trifluoromethyl)thiazol-2-yl)piperazin-1-yl)propoxy)propan-2-yl)oxy)pyridazin-3(2H)-one], at PARP7 [2], the IC50 fell in the range of 100 to 1000 nM.
Turning to `C[C@@H](COCCC(=O)N1CCN(c2ncc(C(F)(F)F)s2)CC1)Oc1cn[nH]c(=O)c1Br` [Example 730, (S)-4-Bromo-5-((1-(3-oxo-3-(4-(5-(trifluoromethyl)thiazol-2-yl)piperazin-1-yl)propoxy)propan-2-yl)oxy)pyridazin-3(2H)-one], the IC50 at PARP7 [2] lay within 100 to 1000 nM.
On to `C[C@@H](COCCS(=O)(=O)N1CCN(c2ncc(C(F)(F)F)s2)CC1)Nc1cn[nH]c(=O)c1Cl` [Example 731, (S)-4-Chloro-5-((1-(2-((4-(5-(trifluoromethyl)thiazol-2-yl)piperazin-1-yl)sulfonyl)ethoxy)propan-2-yl)amino)pyridazin-3(2H)-one], for which the half-inhibitory concentration (IC50) on PARP7 [2] is < 100 nM.
Still for that read-out and setting: as for `C[C@@H](COCCS(=O)(=O)N1CCN(c2ncc(C(F)(F)F)s2)CC1)Nc1cn[nH]c(=O)c1Br` [Example 732, (S)-4-Bromo-5-((1-(2-((4-(5-(trifluoromethyl)thiazol-2-yl)piperazin-1-yl)sulfonyl)ethoxy)propan-2-yl)amino)pyridazin-3(2H)-one], the figure is < 100 nM; as for `Cc1cnc(N2CCN(C(=O)CCOC[C@H](C)Nc3cn[nH]c(=O)c3C(F)(F)F)CC2)s1` [Example 733, (S)-5-((1-(3-(4-(5-Methylthiazol-2-yl)piperazin-1-yl)-3-oxopropoxy)propan-2-yl)amino)-4-(trifluoromethyl)pyridazin-3(2H)-one], < 100 nM.
